What was measured:
TxA₂ receptor = biological target: T1, TxA₂ receptor (Homo sapiens, UniProt P21731); experiment: [³H]-SQ 29,548 binding displacement in washed human platelets (TxA₂ antagonism); details: result in words, compared with Sulotroban (BM 13177)
T1 construct: endogenous in cells; host or cells: washed human platelets from healthy volunteers
T1 sequence (P21731 1-343): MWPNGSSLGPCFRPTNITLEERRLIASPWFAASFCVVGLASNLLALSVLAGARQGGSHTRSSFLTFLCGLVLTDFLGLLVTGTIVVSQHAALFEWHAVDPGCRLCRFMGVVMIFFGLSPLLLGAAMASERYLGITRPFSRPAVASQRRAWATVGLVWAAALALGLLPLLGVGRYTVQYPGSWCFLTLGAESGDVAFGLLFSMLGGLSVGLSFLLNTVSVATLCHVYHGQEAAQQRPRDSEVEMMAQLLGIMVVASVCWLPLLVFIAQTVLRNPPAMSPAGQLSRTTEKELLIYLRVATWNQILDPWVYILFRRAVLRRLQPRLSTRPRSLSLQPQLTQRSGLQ
Protocol: The experiments were carried out as follows: Blood from healthy volunteers of both sexes who had not taken any medication for at least 10 days was collected into one-tenth volume of acid citrate dextrose containing indomethacin (28 µM). Platelet rich plasma (PRP), obtained by centrifugation of the blood at 200 x g for 20 min, was washed twice (1000 x g for 10 min). The platelets were then resuspended in Tyrode-Hepes buffer (pH 7.4) to a final concentration of 5-10x10⁻⁸ cells/ml and incubated for 0-60 min at 25°C with [³H]-SQ 29,548 (5 nM). For displacement experiments various concentrations (10⁻⁹ -10⁻⁴M) of competing ligands were added and incubated for 30 min at 25°C.
Non-specific binding was determined in the presence of 50 µM U46619 and was approximately 5% of total binding of [³H]-SQ 29,548. After incubation, 4 ml of ice-cold TRIS-HCl buffer (10 mM, pH 7.4) was added to each tube and the reaction mixture was immediately filtered by suction through a Whatman GE/C glass filter disc which was washed 2 times with ice-cold TRIS-HCl (4 ml) and counted for radioactivity by a Packard-β-counter.
The binding data were analyzed by computerized non-linear curve fitting using the Ligand program and expressed as IC₅₀.

TxA₂ Synthase [1] = biological target: T2, TxA₂ Synthase (Rattus norvegicus, UniProt P49430); experiment: In vitro effects on TxB₂ production in rat whole blood during clotting (TxA₂ synthesis, RIA); type: cell-based; details: result in words, compared with reference compound Dazoxiben
T2 construct: Blood was withdrawn from the abdominal aorta of the animals under light ether anesthesia; from tissue; host or cells: rat whole blood (clotting, serum TxB₂ by RIA)
T2 sequence (P49430 1-533): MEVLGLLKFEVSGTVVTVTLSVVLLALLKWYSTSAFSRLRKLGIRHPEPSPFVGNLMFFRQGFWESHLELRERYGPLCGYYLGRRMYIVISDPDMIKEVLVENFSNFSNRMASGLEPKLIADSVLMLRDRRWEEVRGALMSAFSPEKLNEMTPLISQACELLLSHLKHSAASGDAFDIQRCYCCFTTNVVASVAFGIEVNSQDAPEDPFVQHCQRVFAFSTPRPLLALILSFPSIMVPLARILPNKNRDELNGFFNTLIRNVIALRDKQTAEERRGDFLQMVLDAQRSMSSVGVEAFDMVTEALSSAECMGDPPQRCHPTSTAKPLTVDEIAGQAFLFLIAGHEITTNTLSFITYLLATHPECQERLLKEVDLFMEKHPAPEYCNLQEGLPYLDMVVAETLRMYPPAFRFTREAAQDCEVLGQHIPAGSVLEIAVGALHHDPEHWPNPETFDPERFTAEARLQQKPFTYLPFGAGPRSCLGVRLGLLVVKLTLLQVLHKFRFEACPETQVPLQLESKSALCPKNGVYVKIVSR
Protocol: The compounds of formula (I) were for example tested for their ability to inhibit TxA₂ Synthase activity (as reflected by TxB₂ generated in whole blood during clotting or in isolated glomeruli) in vitro in the rat. The in vitro experiments were carried out as follows: The effect of the compounds on TxA₂ synthesis was evaluated in serum.
Blood was withdrawn from the abdominal aorta of the animals under light ether anesthesia.
Samples were then allowed to clot for 1 h at 37°C, centrifuged at 3000 rpm for 10 min, serum collected and stored at -20°C until assayed. TxB₂ levels were determined by RIA according to previously described procedures [Patrono et al. - Thromb.

TxA₂ Synthase [2] = biological target: T2, TxA₂ Synthase; details: statement on the known compound, no data shown; cited from earlier work

Molecule	affinity for the receptor (TxA₂ receptor)	inhibitory activity on TxA₂ synthesis (TxA₂ Synthase [1])	TxA₂ synthase inhibitory activity (TxA₂ Synthase [2])
Cc1ccc(CC(/C(=N/OCCCCC(=O)O)C2CCCCC2)n2ccnc2)cc1 (racemic) [FCE 27818, (±)-(E)-5-[2-(4-methylbenzyl)-2-(imidazol-1-yl)-1-cyclohexylethylidene]aminooxypentanoic acid]	good affinity for the receptor which is better than that shown by the known compound Sulotroban (BM 13177)	marked inhibitory activity on TxA₂ synthesis significantly more potent than that of reference compound Dazoxiben	
O=C(O)COc1ccc(CCNS(=O)(=O)c2ccccc2)cc1 [BM 13177, Sulotroban]			devoid of TxA₂ synthase inhibitory activity
(±)-(E)-5-[2-benzyl-2-(imidazol-1-yl)-1-cyclohexylethylidene]-aminooxybutanohydroxamic acid [FCE 27790]	good affinity for the receptor which is better than that shown by the known compound Sulotroban (BM 13177)	marked inhibitory activity on TxA₂ synthesis significantly more potent than that of reference compound Dazoxiben	

From patent EP0635494A1, “2-(Imidazol-1-yl)2-benzylethylidene-aminooxyalkyl-hydroxamic acid derivatives” (PHARMACIA S.p.A., priority 1993, dated 1995)
